Laboratory results as given in patent US10350256B2, “Compositions for the treatment of dermatological conditions, disorders or diseases” (Veit Hoermann Gesellschaft Für Unternehmenskommunikation mbH, priority 2012, dated 2019).

Assays:
Format in all cases: in vivo, human
psoriasis vulgaris = test: Case reports, treatment of psoriasis vulgaris; conditions: Patient H, inpatient treatment
From the text: A patient suffering from psoriasis vulgaris affecting the whole body started a continuous treatment with black cumin oil for six months after several failed therapies with e.g. Daivobet gel.
A patient suffering from suberythrodermic psoriasis vulgaris with iridocyclitis for 13 years received inpatient treatment to intensify therapy after exacerbation for two weeks and severe itching.
Hyperkeratotic plaques were found between the fingers, discreet macerations between the toes, well defined, deeply red foci at the rima ani, and discreet redness at the penis. The psoriasis area and severity index (PASI) at admission was 36.
During inpatient treatment a therapy with fumaric acid was started; the patient further received Ceterizin and Atarax. […] Local treatments included treatment with dithranol vaseline and kopflanette. Further, the whole integument received baths with soft soap and Balneum-Hermal F. The capillitium received Silix washing oil and betamethasone.
The patient further used Curatoderm emulsion for the face. Intertrigines were treated with Candiohermal and Psorcutan ointment. The PASI at discharge was 14.7.
The further medication after discharge from the hospital included fumaric acid, Loratadin, Psorcutan ointment, urea-containing ointment, and Curatoderm emulsions. […]

atopic eczema = test: Case reports, topical treatment of atopic eczema; conditions: Patient B, earlier conventional therapies
From the text: (§1) Various patients have been treated topically with one of the compositions of Example 1 (Recipe N) and Example 2 (Recipe P). These patients were therapy-refractory, i.e. the patients had already been treated with standard therapies to no avail. […] Since the patients had been suffering from their respective diseases for a long time, the treatment with the compositions of the present invention seems to be effective in all stages of the diseases.
A patient suffering from atopic eczema for all their life received a continuous treatment of the affected body parts (elbows, neck, face, legs) over one month with the composition of Example 1 (Recipe N) in an amount of 1 to 10 grams in two treatments per day.
A patient suffering from atopic eczema for more than 20 years received a treatment of the affected body parts (elbows, neck, face) with the composition of Example 1 (Recipe N) for two weeks in an amount of 3 grams in two treatments per day. […] The patient stated that they had never felt so good in 20 years.
A patient suffering from atopic eczema from early childhood on, including dryness and severe itching of the affected areas of the skin, received treatment with olive oil two times a week for two months. […] Accordingly, the treatment was discontinued.
A patient suffering from atopic eczema since birth received a continuous treatment with black cumin oil for two days.

psoriasis arthritis = test: Case report, topical treatment of psoriasis arthritis; conditions: Patient D
From the text: as §1
A patient suffering from psoriasis arthritis for more than 12 years received a treatment of the entire body with the composition of Example 2 (Recipe P). The composition was used regularly over two months in an amount of 150 g per day. The patient had already undergone several failed standard treatments, including cortisone treatment.

| SMILES | itching under treatment (psoriasis vulgaris) | outcome of earlier conventional therapy (atopic eczema) | outcome of earlier standard treatments (psoriasis arthritis) |
| --- | --- | --- | --- |
| O=C(O)COCCN1CCN(C(c2ccccc2)c2ccc(Cl)cc2)CC1 (stereo not drawn) [Ceterizin] | Itching remained |  |  |
| C[C@]12CCC(=O)C=C1CC[C@@H]1[C@@H]2C(=O)C[C@@]2(C)[C@H]1CC[C@]2(O)C(=O)CO [cortisone] |  | without any success | failed |
